Experimental data: ChEMBL document CHEMBL1909576, “Continued exploration of biphenylsulfonamide scaffold as a platform for aggrecanase-1 inhibition” (Bioorg Med Chem Lett, 2011)

Tests used:
[1] = target: Collagenase 3 (Homo sapiens, UniProt P45452); experiment: Inhibition of MMP13
[2] = target: T1, A disintegrin and metalloproteinase with thrombospondin motifs 4 (Homo sapiens, UniProt O75173); experiment: Inhibition of aggrecanase-1
T1 sequence (O75173 whole entry): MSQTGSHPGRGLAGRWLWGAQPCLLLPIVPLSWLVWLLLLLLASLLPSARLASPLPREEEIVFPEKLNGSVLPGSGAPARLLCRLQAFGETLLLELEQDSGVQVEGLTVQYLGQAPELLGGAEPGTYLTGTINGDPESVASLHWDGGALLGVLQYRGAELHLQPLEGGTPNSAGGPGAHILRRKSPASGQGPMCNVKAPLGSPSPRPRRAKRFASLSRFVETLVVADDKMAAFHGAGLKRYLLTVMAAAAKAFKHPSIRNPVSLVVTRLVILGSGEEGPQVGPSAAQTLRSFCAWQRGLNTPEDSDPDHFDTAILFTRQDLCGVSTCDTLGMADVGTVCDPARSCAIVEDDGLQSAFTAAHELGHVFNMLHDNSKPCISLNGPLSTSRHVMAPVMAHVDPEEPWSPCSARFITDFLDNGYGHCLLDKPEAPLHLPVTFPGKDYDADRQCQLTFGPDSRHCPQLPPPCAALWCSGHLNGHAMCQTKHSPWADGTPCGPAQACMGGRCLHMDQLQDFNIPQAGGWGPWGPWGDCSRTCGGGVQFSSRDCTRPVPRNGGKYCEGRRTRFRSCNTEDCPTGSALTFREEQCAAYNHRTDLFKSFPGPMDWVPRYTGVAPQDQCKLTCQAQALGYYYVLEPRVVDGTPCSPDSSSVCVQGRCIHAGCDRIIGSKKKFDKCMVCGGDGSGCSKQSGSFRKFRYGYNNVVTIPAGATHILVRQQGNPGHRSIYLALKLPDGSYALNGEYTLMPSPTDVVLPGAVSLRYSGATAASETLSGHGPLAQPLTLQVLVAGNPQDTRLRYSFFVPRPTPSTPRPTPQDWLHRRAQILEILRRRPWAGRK

[3] = target: T2, A disintegrin and metalloproteinase with thrombospondin motifs 5 (Homo sapiens, UniProt Q9UNA0); experiment: Inhibition of aggrecanase-2
T2 sequence (Q9UNA0 whole entry): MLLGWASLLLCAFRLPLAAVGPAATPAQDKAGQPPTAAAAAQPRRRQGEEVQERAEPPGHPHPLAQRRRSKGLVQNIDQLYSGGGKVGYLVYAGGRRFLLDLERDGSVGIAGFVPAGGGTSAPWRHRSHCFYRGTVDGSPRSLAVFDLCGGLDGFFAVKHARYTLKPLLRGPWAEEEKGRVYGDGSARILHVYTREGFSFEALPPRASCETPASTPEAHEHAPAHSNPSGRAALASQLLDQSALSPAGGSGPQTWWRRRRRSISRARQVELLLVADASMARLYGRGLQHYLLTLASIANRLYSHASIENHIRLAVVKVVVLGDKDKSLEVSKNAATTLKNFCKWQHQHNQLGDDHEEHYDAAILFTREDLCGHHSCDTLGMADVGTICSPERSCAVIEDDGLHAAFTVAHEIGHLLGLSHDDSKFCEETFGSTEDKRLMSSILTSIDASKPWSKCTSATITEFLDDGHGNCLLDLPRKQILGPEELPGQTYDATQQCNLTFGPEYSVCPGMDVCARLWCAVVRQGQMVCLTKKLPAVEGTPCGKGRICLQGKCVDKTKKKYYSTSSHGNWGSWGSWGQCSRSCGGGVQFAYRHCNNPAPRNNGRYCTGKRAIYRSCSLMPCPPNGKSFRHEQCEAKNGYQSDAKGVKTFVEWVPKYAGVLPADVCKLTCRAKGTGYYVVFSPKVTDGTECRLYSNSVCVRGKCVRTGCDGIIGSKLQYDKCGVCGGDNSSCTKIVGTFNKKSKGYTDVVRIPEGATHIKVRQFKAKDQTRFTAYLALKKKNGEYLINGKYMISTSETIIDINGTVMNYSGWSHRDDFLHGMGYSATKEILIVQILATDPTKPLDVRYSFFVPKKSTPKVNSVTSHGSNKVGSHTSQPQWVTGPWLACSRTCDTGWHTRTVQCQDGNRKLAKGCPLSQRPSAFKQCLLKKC

[4] = target: T3, A disintegrin and metalloproteinase with thrombospondin motifs 4 (Bos taurus) (UniProt Q9TT93); experiment: Inhibition of aggrecanase 1 in bovine cartilage explant assessed as inhibition of IL1-stimulated proteoglycan degradation at 10 ug/ml
T3 sequence (whole entry): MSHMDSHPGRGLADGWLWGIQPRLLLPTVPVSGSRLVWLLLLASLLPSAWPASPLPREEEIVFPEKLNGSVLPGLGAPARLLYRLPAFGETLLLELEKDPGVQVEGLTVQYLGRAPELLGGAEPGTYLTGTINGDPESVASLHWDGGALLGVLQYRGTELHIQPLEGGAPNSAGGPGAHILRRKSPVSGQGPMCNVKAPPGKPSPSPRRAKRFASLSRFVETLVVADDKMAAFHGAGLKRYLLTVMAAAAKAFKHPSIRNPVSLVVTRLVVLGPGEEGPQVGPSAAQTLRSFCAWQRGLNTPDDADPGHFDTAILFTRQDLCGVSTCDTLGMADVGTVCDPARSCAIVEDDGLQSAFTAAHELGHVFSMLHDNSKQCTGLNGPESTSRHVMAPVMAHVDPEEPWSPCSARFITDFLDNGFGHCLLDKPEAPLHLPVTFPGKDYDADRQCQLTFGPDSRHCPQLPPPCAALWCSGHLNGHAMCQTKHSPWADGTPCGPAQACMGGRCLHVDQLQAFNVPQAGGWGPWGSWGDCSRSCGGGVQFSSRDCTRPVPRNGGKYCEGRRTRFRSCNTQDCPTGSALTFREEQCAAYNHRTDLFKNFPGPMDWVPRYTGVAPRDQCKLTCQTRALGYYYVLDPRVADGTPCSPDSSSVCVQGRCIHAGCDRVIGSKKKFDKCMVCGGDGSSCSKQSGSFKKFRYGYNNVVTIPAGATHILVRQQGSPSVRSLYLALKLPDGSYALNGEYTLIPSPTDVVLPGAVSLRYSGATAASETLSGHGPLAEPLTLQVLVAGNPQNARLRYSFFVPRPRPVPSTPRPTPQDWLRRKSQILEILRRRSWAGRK

[5] = target: T4, A disintegrin and metalloproteinase with thrombospondin motifs 5 (Homo sapiens) (UniProt Q9UNA0); experiment: Inhibition of aggrecanase-2 at 200 uM
T4 sequence (whole entry): T2 sequence (Q9UNA0 whole entry)

With `Cc1cc(COc2ccc(-c3ccc(S(=O)(=O)N[C@@H](C(=O)O)C(C)C)cc3)cc2)c2ccccc2n1` the IC50 [1] was 0.0096 µM.
With `COC(=O)c1cccc(COc2ccc(-c3ccc(S(=O)(=O)N[C@@H](C(=O)O)C(C)C)cc3)cc2)c1` the IC50 [2] was 0.76 µM and the IC50 [1] was 0.0026 µM.
Work on `CC(=O)Nc1cccc(-c2ccc(S(=O)(=O)N[C@@H](C(=O)O)C(C)C)cc2)c1` yielded an IC50 [2] of 20 µM.
Work on `CC(C)[C@@H](NS(=O)(=O)c1ccc(-c2ccc(OCc3cccc4ccccc34)cc2)cc1)C(=O)O` yielded an IC50 [2] of 1.4 µM and an IC50 [1] of 0.0071 µM.
`CC(C)[C@@H](NS(=O)(=O)c1ccc(-c2ccc(OCc3ccccc3C(F)(F)F)cc2)cc1)C(=O)O` was tested, and the IC50 [2] was 9.1 µM and the IC50 [1] was 24.7 µM.
`CC(C)[C@@H](NS(=O)(=O)c1ccc(-c2ccc(OC(=O)NCc3ccccc3)cc2)cc1)C(=O)O` was tested, and the IC50 [2] was 25 µM.
With `CC(=O)N(C)Cc1ccc(-c2ccc(S(=O)(=O)N[C@@H](C(=O)O)C(C)C)cc2)cc1` the IC50 [2] was > 200 µM.
Work on `CC(C)[C@@H](NS(=O)(=O)c1ccc(-c2ccc(OCc3cccc(C(F)(F)F)n3)cc2)cc1)C(=O)O` yielded an IC50 [2] of 4.7 µM and an IC50 [1] of 4.3 µM.
`CC(C)[C@@H](NS(=O)(=O)c1ccc(-c2ccc(OCC3CCCCC3)cc2)cc1)C(=O)O` was tested, and the IC50 [2] was > 75 µM.
For `CC(C)[C@@H](NS(=O)(=O)c1ccc(-c2ccc(OCc3ccc4ccccc4c3)cc2)cc1)C(=O)O`, the IC50 [1] was 0.0014 µM.
`CC(C)[C@@H](NS(=O)(=O)c1ccc(-c2ccc(OC(=O)Nc3ccccc3)cc2)cc1)C(=O)O` was tested, and the IC50 [2] was 5.6 µM.
With `CC(C)[C@@H](NS(=O)(=O)c1ccc(-c2cccc(CO)c2)cc1)C(=O)O` the IC50 [2] was 2.1 µM.
In the case of `CC(C)[C@@H](NS(=O)(=O)c1ccc(-c2ccc(OCc3ccc(C(F)(F)F)cc3)cc2)cc1)C(=O)O`, the IC50 [2] is reported as 1.9 µM and the IC50 [1] is reported as 0.002 µM.
Work on `CC(C)[C@@H](NS(=O)(=O)c1ccc(-c2cccc(C#N)c2)cc1)C(=O)O` yielded an IC50 [2] of 40 µM.
Molecule `CC(C)[C@@H](NS(=O)(=O)c1ccc(-c2ccc(OCc3ccccn3)cc2)cc1)C(=O)O` has an IC50 [2] of 33 µM.
Molecule `Cc1cc(COc2ccc(-c3ccc(S(=O)(=O)N[C@@H](C(=O)O)C(C)C)cc3)cc2)ccn1` has an IC50 [2] of 2.4 µM and an IC50 [1] of 0.0007 µM.
With `CC(C)[C@@H](NS(=O)(=O)c1ccc(-c2cccc(CN)c2)cc1)C(=O)O` the IC50 [2] was 7.2 µM.
`CC(C)[C@@H](NS(=O)(=O)c1ccc(-c2ccc(OCc3cccc(C(=O)O)c3)cc2)cc1)C(=O)O` was tested, and the IC50 [2] was 22 µM and the IC50 [1] was 0.0027 µM.
`CC(C)[C@@H](NS(=O)(=O)c1ccc(-c2ccc(OCc3cccc([N+](=O)[O-])c3)cc2)cc1)C(=O)O` showed an IC50 [2] of 0.54 µM and an IC50 [1] of 0.0014 µM.
`CC(C)[C@@H](NS(=O)(=O)c1ccc(-c2ccc(Oc3ccccc3)cc2)cc1)C(=O)O` gave an IC50 [2] of 13.2 µM.
`CC(C)[C@@H](NS(=O)(=O)c1ccc(-c2ccc(OCc3ccccc3)cc2)cc1)C(=O)O` gave an IC50 [1] of 0.0056 µM.
With `Cc1c(COc2ccc(-c3ccc(S(=O)(=O)N[C@@H](C(=O)O)C(C)C)cc3)cc2)oc2ccccc12` the IC50 [3] was 3.7 µM, the IC50 [1] was 0.004 µM and the inhibition [4] was 89%.
`CC(C)[C@@H](NS(=O)(=O)c1ccc(-c2ccc(OCc3ccnc(C(F)(F)F)c3)cc2)cc1)C(=O)O` was tested, and the IC50 [2] was 2.2 µM and the IC50 [1] was 0.001 µM.
For `CC(C)[C@@H](NS(=O)(=O)c1ccc(-c2ccc(OCc3cccc(Cl)c3)cc2)cc1)C(=O)O`, the IC50 [2] was 0.4 µM and the IC50 [1] was 0.0014 µM.
`CC(=O)NCc1cccc(-c2ccc(S(=O)(=O)N[C@@H](C(=O)O)C(C)C)cc2)c1` was tested, and the IC50 [2] was > 200 µM.
For `CC(C)[C@@H](NS(=O)(=O)c1ccc(-c2ccc(OCc3cccc(Br)c3)cc2)cc1)C(=O)O`, the IC50 [2] was 0.42 µM and the IC50 [1] was 1.6 µM.
With `CC(C)[C@@H](NS(=O)(=O)c1ccc(-c2ccc(OCc3cccc(C(F)(F)F)c3)cc2)cc1)C(=O)O` the IC50 [2] was 0.31 µM, the IC50 [3] was 2.38 µM and the IC50 [1] was 0.0035 µM. It also gave an inhibition [4] of 87%.
In the case of `CC(C)[C@@H](NS(=O)(=O)c1ccc(-c2ccc(OCc3ccnc4ccccc34)cc2)cc1)C(=O)O`, the IC50 [2] is reported as 1 µM and the IC50 [1] is reported as 0.0052 µM.
`CC(C)[C@@H](NS(=O)(=O)c1ccc(-c2ccc(CNC(=O)c3ccccc3)cc2)cc1)C(=O)O` was tested, and the IC50 [2] was 100 µM.
Work on `CC(=O)Nc1ccc(-c2ccc(S(=O)(=O)N[C@@H](C(=O)O)C(C)C)cc2)cc1` yielded an IC50 [2] of 100 µM.
Work on `CC(C)[C@@H](NS(=O)(=O)c1ccc(-c2ccc(OCc3ccc(C#N)cc3)cc2)cc1)C(=O)O` yielded an IC50 [2] of 1.4 µM and an IC50 [1] of 0.0001 µM.
In the case of `CC(C)[C@@H](NS(=O)(=O)c1ccc(-c2ccc(OC(N)=O)cc2)cc1)C(=O)O`, the IC50 [2] is reported as 4.1 µM.
For `CC(C)[C@@H](NS(=O)(=O)c1ccc(-c2ccc(OCc3ccncc3)cc2)cc1)C(=O)O`, the IC50 [2] was 8.5 µM and the IC50 [1] was 0.0011 µM.
Molecule `CC(Oc1ccc(-c2ccc(S(=O)(=O)N[C@@H](C(=O)O)C(C)C)cc2)cc1)c1cccc(C(F)(F)F)c1` (stereo partly drawn) has an IC50 [2] of 2.7 µM and an IC50 [1] of 0.012 µM.
`CNC(=O)Oc1ccc(-c2ccc(S(=O)(=O)N[C@@H](C(=O)O)C(C)C)cc2)cc1` was tested, and the IC50 [2] was 50 µM.
Molecule `CC(C)[C@@H](NS(=O)(=O)c1ccc(-c2ccc(OCc3cccc(O)c3)cc2)cc1)C(=O)O` has an IC50 [2] of 3.7 µM and an IC50 [1] of 4 µM.
`CC(C)[C@@H](NS(=O)(=O)c1ccc(-c2ccc(OS(=O)(=O)c3ccccc3)cc2)cc1)C(=O)O` showed an IC50 [2] of 8.2 µM.
Molecule `CC(C)[C@@H](NS(=O)(=O)c1ccc(-c2cccc(C(N)=O)c2)cc1)C(=O)O` has an IC50 [2] of 8.4 µM.
`CC(C)[C@@H](NS(=O)(=O)c1ccc(-c2ccc(CO)cc2)cc1)C(=O)O` was tested, and the IC50 [2] was 15 µM.
Work on `CC(=O)NCc1ccc(-c2ccc(S(=O)(=O)N[C@@H](C(=O)O)C(C)C)cc2)cc1` yielded an IC50 [2] of 0.42 µM, an IC50 [1] of 0.45 µM and an inhibition [5] of 73%. For the same molecule, the inhibition [4] was 20%.
With `CC(C)[C@@H](NS(=O)(=O)c1ccc(-c2ccc(OCc3cccnc3)cc2)cc1)C(=O)O` the IC50 [2] was 30 µM.
`CC(C)[C@@H](NS(=O)(=O)c1ccc(-c2ccc(OCc3cccc(F)c3)cc2)cc1)C(=O)O` showed an IC50 [2] of 2.6 µM and an IC50 [1] of 0.0022 µM.
For `CC(C)[C@@H](NS(=O)(=O)c1ccc(-c2ccc(OCc3ccc4ccccc4n3)cc2)cc1)C(=O)O`, the IC50 [2] was 10.6 µM.
